The NIST ThermoML archive (doi:10.1021/je0341918)
Numbers after ± are expanded uncertainties.

How the values were obtained:
[1] = 101.33 kPa, Liquid
[2] = molar heat capacity at constant pressure; settings: 298.15 K; 101.33 kPa; Liquid; Small sample (50 mg) DSC
[3] = xn = mol fraction of the nth substance listed; settings: 101.3 kPa, Liquid, x2 = 0
[4] = molar heat capacity at constant pressure; xn = mol fraction of the nth substance listed; settings: 101.3 kPa, Liquid, Small sample (50 mg) DSC, x2 = 0

OCCCCO [1,4-butanediol]
[1]
Settings	mass density [kg/m3]	viscosity [mPa·s]
293.15 K	1015.76 ± 0.35	90.33 ± 7.4
298.15 K	1012.68 ± 0.34	71.15 ± 3.5
303.15 K	1009.54 ± 0.33	55.98 ± 0.93
308.15 K	1006.43 ± 0.32	44.44 ± 1.5
313.15 K	1003.37 ± 0.31	35.74 ± 1.2
318.15 K	1000.45 ± 0.3	29.11 ± 0.97
323.15 K	997.14 ± 0.31	23.63 ± 0.8
328.15 K	994.02 ± 0.32	19.68 ± 0.68
333.15 K	990.93 ± 0.33	16.17 ± 0.57
338.15 K	987.93 ± 0.33	13.65 ± 0.49
343.15 K	984.81 ± 0.34	11.45 ± 0.42
348.15 K	981.7 ± 0.35	9.778 ± 0.37
353.15 K	978.59 ± 0.36	8.28 ± 0.32
363.15 K	972.71 ± 0.38	6.213 ± 0.26

Settings	molar heat capacity at constant pressure [J/K/mol]
[2]	200.9 ± 4

O [water] + OCCCCO
Settings	mass density, [3] [kg/m3]	molar heat capacity at constant pressure, [4] [J/K/mol]	viscosity, [3] [mPa·s]
293.15 K	–	75.2 ± 1.5	1.002 ± 0.099
303.15 K	–	75.3 ± 1.5	0.797 ± 0.081
313.15 K	–	75.2 ± 1.5	0.653 ± 0.069
323.15 K	988.05 ± 0.29	75.2 ± 1.5	0.547 ± 0.06
333.15 K	983.21 ± 0.3	75.2 ± 1.5	0.467 ± 0.053
343.15 K	977.79 ± 0.32	75.3 ± 1.5	0.405 ± 0.047
353.15 K	971.83 ± 0.34	75.4 ± 1.5	0.356 ± 0.043
